Key:
ruminal microorganisms = test: Effect of cobalt on methane, pH, ammonia-N, and digestibility in continuous cultures of ruminal microorganisms (Table 10); assay type: cell-based; settings: for IVDMTD (in vitro dry matter true digestibility), %: 24 h incubation; for Culture pH, Post-feeding / Methane, nmol/ml, Post-feeding: average of samples at 1, 2, 4 and 6 h after AM feeding; for Culture pH, Pre-feeding / Methane, nmol/ml, Pre-feeding: samples taken at 0 hours
Procedure: Ammonia-N concentrations were not affected (P>0.10) by dietary treatments. […] There was a source x level interaction (P<0.001) for neutral detergent fiber (NDF) digestibility (Table 6). […] Earlier studies reported no effect on DM and NDF digestibility when Co was added at the 5.0 or 10.0 ppm levels.

[1] = tested on: Fast & Fine Premium Grass Seed; test: Greenhouse flats, plant growth: Fast & Fine Grass seed, Flats 17-24 (Table 4); assay type: in vivo, Perennial Ryegrass, Creeping Red Fescue, Kentucky Bluegrass; settings: 1 ppm applied to the soil; second year
Procedure: (§1) Sixty-four sample flats were analyzed. Empty flats were filled with about 0.25 cubic feet of Miracle Gro Soil per flat (a complete soil with enough macro-nutrients, nitrogen, phosphorus and potash to feed the plants for 3-4 months). The seeds were planted and then the seeded soil treated. Flats were watered daily. Progress was documented weekly. This number of flats resulted from running a number of positive controls and several levels of the chelated cobalt lactate per plant selection or choice.
(§2) The makeup of 64 flats was 8 sections times 8 flats per section. The first 8 flats were planted with a mixture of clovers. Flats 9-16 were also planted with the clover mixture at 5.2 grams seed/flat versus 2.6 grams seed/flat in 1-8. Flats 17-24 were planted with Fast & Fine Seed at 2.6 grams/flat, equivalent to the seeding rate from 2008. Fast & Fine Premium Grass Seed is a commercial mixture of Indy Perennial Ryegrass, Silver Dollar Perennial Ryegrass, Boreal Creeping Red Fescue, Kelly Kentucky Bluegrass and Clearwater Kentucky Bluegrass. Flats 25-32 were planted with a mixture including green globe turnips, dwarf Essex forage rapeseed, Rangi forage and giant rapeseed. Flats 33-40 were planted with a mixture of seeds including hybrid sunflower, grain sorghum, Proso millet and buck-wheat, at 5.2 grams/flat. […]

grass = test: Growth of grass with cobalt lactate applied in the soil or sprayed (Example 1, Table 1); assay type: in vivo
From the text: In Table 1, the growth of grass when cobalt lactate was applied either in the soil (before seeding) or sprayed directly onto the grass once growing is shown for the various levels of cobalt (0, 1, 10, 100 and 1000 ppm) that was applied. Following growth 2, cuttings were made then the total weight of grass was shown for the various treatments. […] All work was done with a fully complete soil with respect to nitrogen, phosphorus and potash (Miracle Gro Soil), so that the only difference in the greenhouse flats was the applied cobalt level and the manner in which it was applied.

Food Plot Clover Mix = test: Greenhouse flats, plant growth (sprouts, harvest weight, % of control): Food Plot Clover Mix, Flats 1-16 (Tables 2, 3); assay type: in vivo, mixture of clovers; settings: Flat 13, Clover Mix 5.2 g seed/flat
Procedure: as §1, §2

[2] = Cobalt Medium DI H2O (spray), Target Cobalt Level 1 ppm
[3] = Cobalt Medium DI H2O (spray), Target Cobalt Level 10 ppm
[4] = Cobalt Medium DI H2O (spray), Target Cobalt Level 100 ppm
[5] = Cobalt Medium DI H2O (spray), Target Cobalt Level 1000 ppm
[6] = Cobalt Medium Soil, Target Cobalt Level 1 ppm
[7] = Cobalt Medium Soil, Target Cobalt Level 10 ppm
[8] = Cobalt Medium Soil, Target Cobalt Level 100 ppm
[9] = Cobalt Medium Soil, Target Cobalt Level 1000 ppm

In the case of `O=C([O-])[O-].[Co+2]` [Cobalt Carbonate, cobalt carbonate], the “Ammonia-N” value (ruminal microorganisms; 0.2 ppm) is reported as 10.79 mg/dL, the “NDF Digestibility, %” value (ruminal microorganisms; 0.2 ppm) is reported as 23.16% and the “IVDMTD (in vitro dry matter true digestibility), %” value (ruminal microorganisms; 0.2 ppm) is reported as 59.35%. For the same molecule, the “Culture pH, Post-feeding” value (ruminal microorganisms; 0.2 ppm) was 5.56, the “Methane, nmol/ml, Post-feeding” value (ruminal microorganisms; 0.2 ppm) was 403.14 nmol/mL and the “Culture pH, Pre-feeding” value (ruminal microorganisms; 0.2 ppm) was 5.81. For the same molecule, the “Methane, nmol/ml, Pre-feeding” value (ruminal microorganisms; 0.2 ppm) was 363.91 nmol/mL, the “Ammonia-N” value (ruminal microorganisms; 1.0 ppm) was 10.88 mg/dL and the “NDF Digestibility, %” value (ruminal microorganisms; 1.0 ppm) was 17.09%. For the same molecule, the “Effect on NDF digestibility” value (ruminal microorganisms; 1.0 ppm level) was “negative effect”, the “IVDMTD (in vitro dry matter true digestibility), %” value (ruminal microorganisms; 1.0 ppm) was 59.17% and the “Culture pH, Post-feeding” value (ruminal microorganisms; 1.0 ppm) was 5.55. The “Methane, nmol/ml, Post-feeding” value (ruminal microorganisms; 1.0 ppm) was 515.35 nmol/mL, the “Culture pH, Pre-feeding” value (ruminal microorganisms; 1.0 ppm) was 5.88 and the “Methane, nmol/ml, Pre-feeding” value (ruminal microorganisms; 1.0 ppm) was 347.82 nmol/mL. For the same molecule, the “Effect on methane concentration” value (ruminal microorganisms; continuous cultures, P>0.10 for no effect) was “significant negative impact”.

`CC(O)C(=O)[O-].CC(O)C(=O)[O-].[Co+2]` (stereo not shown) [cobalt lactate] was tested, and the Grass growth [1] was “double the grass growth”, the “Grass Cuttings Weight (gms, 1st)” value (grass; [2]) was 15.7 gms and the “Grass Cuttings Weight (gms, 2nd)” value (grass; [2]) was 13.9 gms. The “Sum Grass Cuttings Weight (gms, 1st + 2nd)” value (“Sum Grass Cuttings Weight” for short) (grass; [2]) was 29.6 gms, the “Grass Cuttings Weight (gms, 1st)” value (grass; [3]) was 17.76 gms and the “Grass Cuttings Weight (gms, 2nd)” value (grass; [3]) was 14.37 gms. The “Sum Grass Cuttings Weight” value (grass; [3]) was 32.13 gms, the “Grass Cuttings Weight (gms, 1st)” value (grass; [4]) was 18.56 gms and the “Grass Cuttings Weight (gms, 2nd)” value (grass; [4]) was 26.57 gms. For the same molecule, the “Sum Grass Cuttings Weight” value (grass; [4]) was 45.13 gms, the “Grass Cuttings Weight (gms, 1st)” value (grass; [5]) was 24.03 gms and the “Grass Cuttings Weight (gms, 2nd)” value (grass; [5]) was 15.44 gms. The “Sum Grass Cuttings Weight” value (grass; [5]) was 39.47 gms, the “Grass Cuttings Weight (gms, 1st)” value (grass; [6]) was 31.06 gms and the “Grass Cuttings Weight (gms, 2nd)” value (grass; [6]) was 22.73 gms. The “Sum Grass Cuttings Weight” value (grass; [6]) was 53.79 gms, the “Grass Cuttings Weight (gms, 1st)” value (grass; [7]) was 22.8 gms and the “Grass Cuttings Weight (gms, 2nd)” value (grass; [7]) was 31.41 gms. The “Sum Grass Cuttings Weight” value (grass; [7]) was 54.21 gms, the “Grass Cuttings Weight (gms, 1st)” value (grass; [8]) was 16.33 gms and the “Grass Cuttings Weight (gms, 2nd)” value (grass; [8]) was 10.12 gms. The “Sum Grass Cuttings Weight” value (grass; [8]) was 26.45 gms, the “Grass Cuttings Weight (gms, 1st)” value (grass; [9]) was 5.15 gms and the “Grass Cuttings Weight (gms, 2nd)” value (grass; [9]) was 1.81 gms. For the same molecule, the “Sum Grass Cuttings Weight” value (grass; [9]) was 6.96 gms, the Growth of grass (grass; applied in the soil at 1 or 10 ppm or applied by spray at 100 ppm) was “roughly doubled” and the “Growth ahead of the positive control (Delt Ag)” value (Food Plot Clover Mix) was 13%.

Reference: US11078127B2, “Organically chelated mineral compositions and methods thereof” (Ralco Nutrition, Inc., priority 2009, dated 2021)
